Source: ChEMBL document CHEMBL3991601, “The target landscape of clinical kinase drugs” (Science, 2017)
Active and inactive are the calls of the source. Rule as the data show it, for most assays here: actives have a measured Kd and inactives only a lower limit.

Target: T1, TGF-beta receptor type-1 (Homo sapiens, UniProt P36897)
T1 sequence (P36897 whole entry): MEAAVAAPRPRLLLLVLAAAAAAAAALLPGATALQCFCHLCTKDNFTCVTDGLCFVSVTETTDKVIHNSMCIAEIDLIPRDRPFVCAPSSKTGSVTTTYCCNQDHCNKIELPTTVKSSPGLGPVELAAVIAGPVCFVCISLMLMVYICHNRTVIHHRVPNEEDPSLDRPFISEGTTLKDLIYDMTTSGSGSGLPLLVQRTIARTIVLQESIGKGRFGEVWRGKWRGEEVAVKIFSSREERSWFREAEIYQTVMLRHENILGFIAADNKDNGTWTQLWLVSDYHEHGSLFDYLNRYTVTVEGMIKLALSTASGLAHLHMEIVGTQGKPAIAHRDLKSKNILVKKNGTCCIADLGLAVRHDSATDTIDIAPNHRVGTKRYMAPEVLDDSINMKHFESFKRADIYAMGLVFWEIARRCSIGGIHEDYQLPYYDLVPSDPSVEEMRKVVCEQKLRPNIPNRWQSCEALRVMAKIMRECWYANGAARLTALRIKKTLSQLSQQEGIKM
Conditions: not given
Also: in the data inactive means no Kd found up to 30 µM.

| SMILES | Kd |
| --- | --- |
| CN(C)C(=O)c1cc2cnc(Nc3ccc(N4CCNCC4)cn3)nc2n1C1CCCC1 [RIBOCICLIB] | > 30 µM (inactive) |
| CNC(=O)CN1CCC(Oc2cc3c(Nc4cccc(Cl)c4F)ncnc3cc2OC)CC1 [SAPITINIB] | > 30 µM (inactive) |
| CCCS(=O)(=O)Nc1ccc(F)c(C(=O)c2c[nH]c3ncc(-c4ccc(Cl)cc4)cc23)c1F [VEMURAFENIB] | > 30 µM (inactive) |
| CC[C@@H]1C(=O)N(C)c2cnc(Nc3ccc(C(=O)N[C@H]4CC[C@H](N5CCN(CC6CC6)CC5)CC4)cc3OC)nc2N1C(C)C [VOLASERTIB] | > 30 µM (inactive) |

Target: Rho-associated protein kinase 2 (Homo sapiens, UniProt O75116)
Sequence (O75116 whole entry): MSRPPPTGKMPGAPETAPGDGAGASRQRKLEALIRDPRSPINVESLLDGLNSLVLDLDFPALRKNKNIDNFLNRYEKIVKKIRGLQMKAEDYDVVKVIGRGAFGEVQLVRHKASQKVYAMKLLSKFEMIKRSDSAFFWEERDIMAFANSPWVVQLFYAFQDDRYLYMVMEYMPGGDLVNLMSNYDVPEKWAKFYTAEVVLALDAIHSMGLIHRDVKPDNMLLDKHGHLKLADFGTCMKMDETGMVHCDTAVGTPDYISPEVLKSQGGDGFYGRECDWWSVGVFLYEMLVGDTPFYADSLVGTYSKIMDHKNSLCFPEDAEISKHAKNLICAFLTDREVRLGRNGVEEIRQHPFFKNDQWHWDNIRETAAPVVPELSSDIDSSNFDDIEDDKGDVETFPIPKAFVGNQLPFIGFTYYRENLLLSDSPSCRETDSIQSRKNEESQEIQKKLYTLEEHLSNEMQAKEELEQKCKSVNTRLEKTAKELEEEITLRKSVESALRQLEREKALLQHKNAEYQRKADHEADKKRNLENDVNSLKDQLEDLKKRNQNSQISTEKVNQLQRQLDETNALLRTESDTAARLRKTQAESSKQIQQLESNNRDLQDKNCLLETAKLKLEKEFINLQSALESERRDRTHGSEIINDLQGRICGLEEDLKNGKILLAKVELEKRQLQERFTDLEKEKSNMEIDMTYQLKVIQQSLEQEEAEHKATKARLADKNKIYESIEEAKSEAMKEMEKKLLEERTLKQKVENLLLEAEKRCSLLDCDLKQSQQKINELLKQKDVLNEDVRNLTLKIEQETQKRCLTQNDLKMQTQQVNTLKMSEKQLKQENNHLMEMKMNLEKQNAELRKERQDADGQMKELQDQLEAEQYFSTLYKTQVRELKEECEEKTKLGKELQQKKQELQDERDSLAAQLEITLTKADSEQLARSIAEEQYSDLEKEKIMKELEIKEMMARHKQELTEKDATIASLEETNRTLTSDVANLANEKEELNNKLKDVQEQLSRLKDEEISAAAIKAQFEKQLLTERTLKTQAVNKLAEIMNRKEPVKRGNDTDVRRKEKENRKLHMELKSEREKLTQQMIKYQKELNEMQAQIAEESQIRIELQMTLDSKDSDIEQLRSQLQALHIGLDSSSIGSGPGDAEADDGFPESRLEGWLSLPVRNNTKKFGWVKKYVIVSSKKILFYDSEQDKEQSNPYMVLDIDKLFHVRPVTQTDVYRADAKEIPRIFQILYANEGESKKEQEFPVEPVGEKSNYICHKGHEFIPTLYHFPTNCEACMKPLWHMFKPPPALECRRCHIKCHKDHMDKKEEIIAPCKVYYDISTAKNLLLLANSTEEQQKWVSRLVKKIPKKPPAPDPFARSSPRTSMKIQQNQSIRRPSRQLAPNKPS
Conditions: not given

| SMILES | Kd |
| --- | --- |
| CN(C)C(=O)c1cc2cnc(Nc3ccc(N4CCNCC4)cn3)nc2n1C1CCCC1 [RIBOCICLIB] | > 30 µM (inactive) |
| CNC(=O)CN1CCC(Oc2cc3c(Nc4cccc(Cl)c4F)ncnc3cc2OC)CC1 [SAPITINIB] | > 30 µM (inactive) |
| CCCS(=O)(=O)Nc1ccc(F)c(C(=O)c2c[nH]c3ncc(-c4ccc(Cl)cc4)cc23)c1F [VEMURAFENIB] | > 30 µM (inactive) |
| CC[C@@H]1C(=O)N(C)c2cnc(Nc3ccc(C(=O)N[C@H]4CC[C@H](N5CCN(CC6CC6)CC5)CC4)cc3OC)nc2N1C(C)C [VOLASERTIB] | > 30 µM (inactive) |

Target: Cyclin-dependent kinase 6 (Homo sapiens, UniProt Q00534)
Sequence (Q00534 whole entry): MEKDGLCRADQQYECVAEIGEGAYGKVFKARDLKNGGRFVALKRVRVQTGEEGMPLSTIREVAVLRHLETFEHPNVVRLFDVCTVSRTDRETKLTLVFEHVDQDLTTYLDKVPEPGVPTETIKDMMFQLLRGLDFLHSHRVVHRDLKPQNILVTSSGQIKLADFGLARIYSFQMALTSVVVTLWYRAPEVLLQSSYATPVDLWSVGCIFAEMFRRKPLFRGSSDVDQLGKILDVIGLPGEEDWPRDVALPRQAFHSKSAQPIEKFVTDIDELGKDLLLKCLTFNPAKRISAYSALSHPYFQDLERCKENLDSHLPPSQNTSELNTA
Conditions: not given

| SMILES | Kd |
| --- | --- |
| CNC(=O)CN1CCC(Oc2cc3c(Nc4cccc(Cl)c4F)ncnc3cc2OC)CC1 [SAPITINIB] | > 30 µM (inactive) |
| CCCS(=O)(=O)Nc1ccc(F)c(C(=O)c2c[nH]c3ncc(-c4ccc(Cl)cc4)cc23)c1F [VEMURAFENIB] | > 30 µM (inactive) |
| CC[C@@H]1C(=O)N(C)c2cnc(Nc3ccc(C(=O)N[C@H]4CC[C@H](N5CCN(CC6CC6)CC5)CC4)cc3OC)nc2N1C(C)C [VOLASERTIB] | > 30 µM (inactive) |

Target: Dual specificity tyrosine-phosphorylation-regulated kinase 1A (Homo sapiens, UniProt Q13627)
Conditions: not given

| SMILES | Kd |
| --- | --- |
| CN(C)C(=O)c1cc2cnc(Nc3ccc(N4CCNCC4)cn3)nc2n1C1CCCC1 [RIBOCICLIB] | > 30 µM (inactive) |
| CNC(=O)CN1CCC(Oc2cc3c(Nc4cccc(Cl)c4F)ncnc3cc2OC)CC1 [SAPITINIB] | > 30 µM (inactive) |
| CCCS(=O)(=O)Nc1ccc(F)c(C(=O)c2c[nH]c3ncc(-c4ccc(Cl)cc4)cc23)c1F [VEMURAFENIB] | > 30 µM (inactive) |
| CC[C@@H]1C(=O)N(C)c2cnc(Nc3ccc(C(=O)N[C@H]4CC[C@H](N5CCN(CC6CC6)CC5)CC4)cc3OC)nc2N1C(C)C [VOLASERTIB] | > 30 µM (inactive) |

Target: Glycogen synthase kinase-3 beta (Homo sapiens, UniProt P49841)
Sequence (P49841 whole entry): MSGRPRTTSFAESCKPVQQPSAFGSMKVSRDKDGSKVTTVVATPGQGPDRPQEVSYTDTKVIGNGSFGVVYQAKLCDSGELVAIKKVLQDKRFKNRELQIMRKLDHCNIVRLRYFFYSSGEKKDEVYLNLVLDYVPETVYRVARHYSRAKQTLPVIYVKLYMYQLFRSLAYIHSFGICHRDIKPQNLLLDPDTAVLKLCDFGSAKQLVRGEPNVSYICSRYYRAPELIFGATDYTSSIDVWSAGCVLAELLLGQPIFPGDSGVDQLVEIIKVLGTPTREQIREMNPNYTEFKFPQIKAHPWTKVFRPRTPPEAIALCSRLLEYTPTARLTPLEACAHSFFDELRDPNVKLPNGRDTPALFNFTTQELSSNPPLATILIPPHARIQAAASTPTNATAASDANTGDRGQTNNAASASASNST
Conditions: not given

| SMILES | Kd |
| --- | --- |
| CN(C)C(=O)c1cc2cnc(Nc3ccc(N4CCNCC4)cn3)nc2n1C1CCCC1 [RIBOCICLIB] | > 30 µM (inactive) |
| CNC(=O)CN1CCC(Oc2cc3c(Nc4cccc(Cl)c4F)ncnc3cc2OC)CC1 [SAPITINIB] | > 30 µM (inactive) |
| CCCS(=O)(=O)Nc1ccc(F)c(C(=O)c2c[nH]c3ncc(-c4ccc(Cl)cc4)cc23)c1F [VEMURAFENIB] | > 30 µM (inactive) |
| CC[C@@H]1C(=O)N(C)c2cnc(Nc3ccc(C(=O)N[C@H]4CC[C@H](N5CCN(CC6CC6)CC5)CC4)cc3OC)nc2N1C(C)C [VOLASERTIB] | > 30 µM (inactive) |

Target: T2, RNA cytidine acetyltransferase (Homo sapiens, UniProt Q9H0A0)
T2 sequence (Q9H0A0 whole entry): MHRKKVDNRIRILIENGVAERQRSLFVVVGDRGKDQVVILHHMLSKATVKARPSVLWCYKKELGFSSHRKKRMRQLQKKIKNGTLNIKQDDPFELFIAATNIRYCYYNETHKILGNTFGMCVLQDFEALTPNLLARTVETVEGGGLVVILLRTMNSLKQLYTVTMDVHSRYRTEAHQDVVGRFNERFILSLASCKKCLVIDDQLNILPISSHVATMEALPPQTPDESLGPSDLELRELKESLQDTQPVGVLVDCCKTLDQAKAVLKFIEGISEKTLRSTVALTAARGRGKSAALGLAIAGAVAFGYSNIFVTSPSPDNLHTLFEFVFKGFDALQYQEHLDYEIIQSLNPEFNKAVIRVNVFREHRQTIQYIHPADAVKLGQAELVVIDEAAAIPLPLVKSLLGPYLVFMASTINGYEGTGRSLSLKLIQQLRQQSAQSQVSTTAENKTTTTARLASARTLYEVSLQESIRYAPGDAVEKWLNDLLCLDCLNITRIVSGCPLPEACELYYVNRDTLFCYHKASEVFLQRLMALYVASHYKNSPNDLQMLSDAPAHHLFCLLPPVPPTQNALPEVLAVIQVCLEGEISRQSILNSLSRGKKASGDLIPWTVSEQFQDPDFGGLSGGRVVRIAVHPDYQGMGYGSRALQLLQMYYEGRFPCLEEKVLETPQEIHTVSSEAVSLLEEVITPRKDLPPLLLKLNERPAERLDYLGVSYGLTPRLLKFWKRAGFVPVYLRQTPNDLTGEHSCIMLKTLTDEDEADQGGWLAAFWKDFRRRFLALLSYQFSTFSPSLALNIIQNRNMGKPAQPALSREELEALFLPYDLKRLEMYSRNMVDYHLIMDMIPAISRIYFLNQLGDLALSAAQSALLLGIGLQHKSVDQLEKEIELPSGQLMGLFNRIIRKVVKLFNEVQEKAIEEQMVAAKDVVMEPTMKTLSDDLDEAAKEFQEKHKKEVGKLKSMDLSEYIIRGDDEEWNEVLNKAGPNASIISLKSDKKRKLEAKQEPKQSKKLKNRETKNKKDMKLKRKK
Conditions: not given

| SMILES | Kd |
| --- | --- |
| CN(C)C(=O)c1cc2cnc(Nc3ccc(N4CCNCC4)cn3)nc2n1C1CCCC1 [RIBOCICLIB] | > 30 µM (inactive) |
| CNC(=O)CN1CCC(Oc2cc3c(Nc4cccc(Cl)c4F)ncnc3cc2OC)CC1 [SAPITINIB] | > 30 µM (inactive) |
| CCCS(=O)(=O)Nc1ccc(F)c(C(=O)c2c[nH]c3ncc(-c4ccc(Cl)cc4)cc23)c1F [VEMURAFENIB] | > 30 µM (inactive) |
| CC[C@@H]1C(=O)N(C)c2cnc(Nc3ccc(C(=O)N[C@H]4CC[C@H](N5CCN(CC6CC6)CC5)CC4)cc3OC)nc2N1C(C)C [VOLASERTIB] | > 30 µM (inactive) |

Target: Ribosomal protein S6 kinase beta-1 (Homo sapiens, UniProt P23443)
Sequence (P23443 whole entry): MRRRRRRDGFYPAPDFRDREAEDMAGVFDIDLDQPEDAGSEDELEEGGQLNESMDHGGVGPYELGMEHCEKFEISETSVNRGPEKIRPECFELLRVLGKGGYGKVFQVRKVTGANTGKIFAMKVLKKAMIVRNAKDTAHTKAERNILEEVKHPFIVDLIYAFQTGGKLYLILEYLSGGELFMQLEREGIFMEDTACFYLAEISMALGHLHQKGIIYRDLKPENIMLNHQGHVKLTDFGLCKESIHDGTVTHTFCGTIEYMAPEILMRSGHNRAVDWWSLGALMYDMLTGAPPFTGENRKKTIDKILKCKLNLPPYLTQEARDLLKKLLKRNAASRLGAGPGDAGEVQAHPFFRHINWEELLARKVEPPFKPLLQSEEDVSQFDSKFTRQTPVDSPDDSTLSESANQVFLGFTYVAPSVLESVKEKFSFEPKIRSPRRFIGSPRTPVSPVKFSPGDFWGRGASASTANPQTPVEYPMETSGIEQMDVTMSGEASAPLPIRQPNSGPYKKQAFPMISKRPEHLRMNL
Conditions: not given

| SMILES | Kd |
| --- | --- |
| CN(C)C(=O)c1cc2cnc(Nc3ccc(N4CCNCC4)cn3)nc2n1C1CCCC1 [RIBOCICLIB] | > 30 µM (inactive) |
| CNC(=O)CN1CCC(Oc2cc3c(Nc4cccc(Cl)c4F)ncnc3cc2OC)CC1 [SAPITINIB] | > 30 µM (inactive) |
| CCCS(=O)(=O)Nc1ccc(F)c(C(=O)c2c[nH]c3ncc(-c4ccc(Cl)cc4)cc23)c1F [VEMURAFENIB] | > 30 µM (inactive) |
| CC[C@@H]1C(=O)N(C)c2cnc(Nc3ccc(C(=O)N[C@H]4CC[C@H](N5CCN(CC6CC6)CC5)CC4)cc3OC)nc2N1C(C)C [VOLASERTIB] | > 30 µM (inactive) |

Target: T3, Uncharacterized protein FLJ45252 (Homo sapiens, UniProt Q6ZSR9)
T3 sequence (Q6ZSR9 whole entry): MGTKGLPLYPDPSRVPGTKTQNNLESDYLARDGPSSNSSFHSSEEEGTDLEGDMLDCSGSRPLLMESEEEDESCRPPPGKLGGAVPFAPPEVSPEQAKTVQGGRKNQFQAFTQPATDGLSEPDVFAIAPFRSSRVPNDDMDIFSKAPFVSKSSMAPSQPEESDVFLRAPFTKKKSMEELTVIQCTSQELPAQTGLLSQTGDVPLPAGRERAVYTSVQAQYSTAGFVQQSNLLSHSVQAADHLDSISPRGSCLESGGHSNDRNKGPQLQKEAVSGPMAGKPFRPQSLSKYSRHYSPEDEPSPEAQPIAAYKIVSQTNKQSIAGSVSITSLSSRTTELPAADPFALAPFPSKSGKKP
Conditions: read-out: Kd apparent; k-562, colo 205, sk-n-be(2) and mv-4-11

| SMILES | Kd |
| --- | --- |
| CN(C)C(=O)c1cc2cnc(Nc3ccc(N4CCNCC4)cn3)nc2n1C1CCCC1 [RIBOCICLIB] | 9.31 µM (active) |
| CNC(=O)CN1CCC(Oc2cc3c(Nc4cccc(Cl)c4F)ncnc3cc2OC)CC1 [SAPITINIB] | > 30 µM (inactive) |
| CCCS(=O)(=O)Nc1ccc(F)c(C(=O)c2c[nH]c3ncc(-c4ccc(Cl)cc4)cc23)c1F [VEMURAFENIB] | > 30 µM (inactive) |

Target: T4, Signal recognition particle receptor subunit alpha (Homo sapiens, UniProt P08240)
T4 sequence (P08240 whole entry): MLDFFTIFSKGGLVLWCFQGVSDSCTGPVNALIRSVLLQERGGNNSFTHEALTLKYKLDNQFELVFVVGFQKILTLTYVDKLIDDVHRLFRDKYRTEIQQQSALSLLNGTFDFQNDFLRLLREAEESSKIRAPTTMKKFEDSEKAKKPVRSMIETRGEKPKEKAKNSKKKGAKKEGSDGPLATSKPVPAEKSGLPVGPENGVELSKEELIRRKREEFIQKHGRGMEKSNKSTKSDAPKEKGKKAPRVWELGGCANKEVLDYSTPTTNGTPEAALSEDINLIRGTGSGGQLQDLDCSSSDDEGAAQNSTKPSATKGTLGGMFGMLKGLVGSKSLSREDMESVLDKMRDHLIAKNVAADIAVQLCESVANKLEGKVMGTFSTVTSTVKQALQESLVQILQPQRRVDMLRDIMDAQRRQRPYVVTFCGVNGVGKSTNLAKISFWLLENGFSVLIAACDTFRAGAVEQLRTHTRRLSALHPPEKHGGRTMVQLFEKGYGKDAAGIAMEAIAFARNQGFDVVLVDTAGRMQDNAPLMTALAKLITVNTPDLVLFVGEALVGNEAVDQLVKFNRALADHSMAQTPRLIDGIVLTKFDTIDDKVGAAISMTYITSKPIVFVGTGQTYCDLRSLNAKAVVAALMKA
Conditions: not given

| SMILES | Kd |
| --- | --- |
| CN(C)C(=O)c1cc2cnc(Nc3ccc(N4CCNCC4)cn3)nc2n1C1CCCC1 [RIBOCICLIB] | > 30 µM (inactive) |
| CC[C@@H]1C(=O)N(C)c2cnc(Nc3ccc(C(=O)N[C@H]4CC[C@H](N5CCN(CC6CC6)CC5)CC4)cc3OC)nc2N1C(C)C [VOLASERTIB] | > 30 µM (inactive) |

Target: Platelet-derived growth factor receptor beta (Homo sapiens, UniProt P09619)
Sequence (P09619 whole entry): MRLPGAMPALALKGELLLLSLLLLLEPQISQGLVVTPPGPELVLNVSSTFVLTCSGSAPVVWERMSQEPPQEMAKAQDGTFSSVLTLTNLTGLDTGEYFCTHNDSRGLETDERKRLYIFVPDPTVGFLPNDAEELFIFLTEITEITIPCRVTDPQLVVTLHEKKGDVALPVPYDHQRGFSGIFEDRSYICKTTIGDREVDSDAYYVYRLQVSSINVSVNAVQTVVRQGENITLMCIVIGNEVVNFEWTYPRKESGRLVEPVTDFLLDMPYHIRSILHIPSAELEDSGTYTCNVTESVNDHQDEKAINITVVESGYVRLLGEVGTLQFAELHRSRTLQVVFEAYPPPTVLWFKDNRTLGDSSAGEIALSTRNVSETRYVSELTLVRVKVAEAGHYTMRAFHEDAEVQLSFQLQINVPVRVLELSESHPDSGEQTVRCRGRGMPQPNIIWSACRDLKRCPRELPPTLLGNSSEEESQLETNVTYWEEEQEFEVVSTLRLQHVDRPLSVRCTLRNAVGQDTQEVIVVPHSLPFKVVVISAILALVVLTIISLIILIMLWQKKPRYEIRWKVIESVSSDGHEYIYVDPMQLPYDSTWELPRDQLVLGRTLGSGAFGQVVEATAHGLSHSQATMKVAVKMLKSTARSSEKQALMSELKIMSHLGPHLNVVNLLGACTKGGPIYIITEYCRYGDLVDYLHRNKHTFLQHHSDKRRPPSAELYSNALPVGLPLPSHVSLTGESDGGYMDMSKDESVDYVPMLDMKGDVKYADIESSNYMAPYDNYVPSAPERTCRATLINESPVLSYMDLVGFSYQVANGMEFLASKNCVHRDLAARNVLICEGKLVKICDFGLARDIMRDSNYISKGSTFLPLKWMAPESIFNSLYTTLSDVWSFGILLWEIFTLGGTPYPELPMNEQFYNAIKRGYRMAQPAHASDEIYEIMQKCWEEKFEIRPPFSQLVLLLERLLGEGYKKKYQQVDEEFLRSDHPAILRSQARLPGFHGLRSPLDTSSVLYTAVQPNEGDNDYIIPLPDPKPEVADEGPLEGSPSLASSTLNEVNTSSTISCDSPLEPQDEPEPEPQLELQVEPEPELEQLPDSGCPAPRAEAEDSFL
Conditions: not given

| SMILES | Kd |
| --- | --- |
| CN(C)C(=O)c1cc2cnc(Nc3ccc(N4CCNCC4)cn3)nc2n1C1CCCC1 [RIBOCICLIB] | > 30 µM (inactive) |
| CNC(=O)CN1CCC(Oc2cc3c(Nc4cccc(Cl)c4F)ncnc3cc2OC)CC1 [SAPITINIB] | > 30 µM (inactive) |
| CCCS(=O)(=O)Nc1ccc(F)c(C(=O)c2c[nH]c3ncc(-c4ccc(Cl)cc4)cc23)c1F [VEMURAFENIB] | > 30 µM (inactive) |
| CC[C@@H]1C(=O)N(C)c2cnc(Nc3ccc(C(=O)N[C@H]4CC[C@H](N5CCN(CC6CC6)CC5)CC4)cc3OC)nc2N1C(C)C [VOLASERTIB] | > 30 µM (inactive) |

Target: Mitogen-activated protein kinase 3 (Homo sapiens, UniProt P27361)
Sequence (P27361 whole entry): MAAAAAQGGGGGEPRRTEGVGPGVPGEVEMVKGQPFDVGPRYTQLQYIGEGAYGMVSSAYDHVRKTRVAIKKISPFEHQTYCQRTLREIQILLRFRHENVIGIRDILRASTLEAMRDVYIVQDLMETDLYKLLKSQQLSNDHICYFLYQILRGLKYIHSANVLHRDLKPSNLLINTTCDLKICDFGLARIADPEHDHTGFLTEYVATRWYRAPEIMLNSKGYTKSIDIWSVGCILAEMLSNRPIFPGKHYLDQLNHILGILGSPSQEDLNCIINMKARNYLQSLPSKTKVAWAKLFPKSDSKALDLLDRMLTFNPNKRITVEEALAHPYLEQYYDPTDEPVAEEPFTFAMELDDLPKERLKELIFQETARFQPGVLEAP
Conditions: not given

| SMILES | Kd |
| --- | --- |
| CN(C)C(=O)c1cc2cnc(Nc3ccc(N4CCNCC4)cn3)nc2n1C1CCCC1 [RIBOCICLIB] | > 30 µM (inactive) |
| CNC(=O)CN1CCC(Oc2cc3c(Nc4cccc(Cl)c4F)ncnc3cc2OC)CC1 [SAPITINIB] | > 30 µM (inactive) |
| CCCS(=O)(=O)Nc1ccc(F)c(C(=O)c2c[nH]c3ncc(-c4ccc(Cl)cc4)cc23)c1F [VEMURAFENIB] | > 30 µM (inactive) |
| CC[C@@H]1C(=O)N(C)c2cnc(Nc3ccc(C(=O)N[C@H]4CC[C@H](N5CCN(CC6CC6)CC5)CC4)cc3OC)nc2N1C(C)C [VOLASERTIB] | > 30 µM (inactive) |
